Like-named read-outs stand apart in the source and are kept apart here. *1 amine or outer side, *2 acyl side, *3 side chain or, on linkers, in order; H or OH if unused. Where a SMILES comes first, the peptide text is derived from it. Bridges are numbered along the chain shown (N, C = ends). [ ]: non-standard residue; d: D form. TBMB = c1c(C[*:1])cc(C[*:3])cc1C[*:2]; hArg = N=C(N)NCCCC[C@H](N)C(=O)O; Aze = O=C(O)[C@@H]1CCN1

Experimental findings from patent US10894808B2, “Polypeptide ligands specific for plasma kallikrein” (BicycleRD Limited, priority 2013, dated 2021) are described below.

The subject of series [1] is carrageenan-induced paw oedema. The experiment in a line: Carrageenan-induced paw oedema in rat. In kind it is in vivo. The settings on record: peptides 15 mg/kg ip, indomethacin 5 mg/kg ip, paw volume at 1, 2, 4, 6 h, p<0.001. On the procedure:
In this analysis, peptide Ac-(06-259-02)-Sar3-(D-Arg)2 (referred to in this study as Bicycle 3; see Example 2 herein) was assessed comparatively against the peptide Ac-(06-34-18) Phe2 Aze3 Tyr4 HArg5 Ala(ψCH2NH)6 (referred to in this study as Bicycle 2 and which is disclosed in Table 26b and FIG. 22 of PCT/EP2014/057440). Inflammation was induced in male Sprague-Dawley rats (n=10 per group) by injection of 100 μL of 1% carrageenan solution in the subplantar region of the right hind paw. Animals received treatment with the peptides and indomethacin according to Table 10:
At 1, 2, 4 and 6 hours after carrageenan administration, paw volume was measured by water displacement method. Statistical analysis was conducted using 2-way ANOVA with repeated measures (GraphPad Prism).

Another series deals with T1, human plasma kallikrein (Homo sapiens, UniProt P03952).
T1 construct: purchased Stratech, UK
The experiment in a line: Functional enzyme assay, inhibition of human plasma kallikrein (Z-PheArg-AMC substrate). In kind it is biochemical. The settings on record: read-out: Human (Ki). As to the method:
(§1) Functional enzyme assays were conducted in 10 mM Tris HCl, 150 mM NaCl, 10 mM MgCl2, 1 mM CaCl2 and 1 mg/mL BSA (all Sigma UK) pH 7.4 at 25° C. in solid black 96 or 384 well plates. […] Release of AMC was measured using a Pherastar FS (BMG Labtech), excitation 360 nm, emission 460 nm. The rate of the linear phase of the reaction, typically 5 to 45 minutes, was calculated in MARS data analysis software (BMG labtech). The rate was then used to calculate the IC50 and Ki in Prism (GraphPad). A four parameter inhibition non-linear regression equation was used to calculate the IC50. […]
(§2) Peptides were dissolved as the TFA-salts in their powder form, and stock solutions were usually prepared in water. All solutions were centrifuged and filtered ([…] syringe filters) prior to absorption measurement at 280 nm. Extinction coefficients were calculated based on the Trp/Tyr content of the peptide, and that of TMB (the TMB core, when contained in a peptide, has an extinction coefficient of ˜300 M^−1 cm^−1).

Another series addresses T2, rat plasma kallikrein (Rattus norvegicus, UniProt P14272).
T2 construct: polyhistidine tag followed by proTEV cleavage site (pro-peptide) (N, cleaved yes); made in house; host or cells: HEK-293 (suspension-adapted), pEXPR-IBA42 vector
The experiment in a line: Functional enzyme assay, inhibition of rat plasma kallikrein (Z-PheArg-AMC substrate). The series is classed as biochemical. The settings on record: read-out: Rat (Ki). On the procedure: as §1, §2

The target in a further series is rabbit kallikrein (Oryctolagus cuniculus, UniProt G1T127). The experiment in a line: Functional enzyme assay, inhibition of rabbit kallikrein. In kind it is biochemical. The settings on record: read-out: Rabbit (Ki). On the procedure:
as §1, §2

The target in series [2] is T3, biotinylated human plasma kallikrein (Homo sapiens, UniProt P03952).
T3 construct: The human kallikrein is non-recombinant and therefore the heavy chain is present; purchased Innovative Research, Novi, Mich., USA IHPKA; host or cells: from human plasma
The experiment in a line: Homogeneous plate-based screening assay of TBMB-cyclised phage clones (signal:background). In kind it is binding. As to the method:
Assay of binding of individual clones: Library transformant colonies were picked at random and grown as individual cultures in 2TY broth containing selective antibiotic. The picked colonies were DNA-sequenced using a QIAgen PyroMark Q96 DNA sequencer to reveal the amino-acid substitution present in each clone. Where isolated, a clone of each unique substitution was assayed for human plasma kallikrein binding as follows. The phage-containing supernatant was harvested from the culture and phage were cyclised with tris bromomethyl benzene (TBMB) based on the methods of Heinis et al (Nature Chemical Biology vol. 5 pp 502-507 (2009)). The purified phage from this process were assayed for binding to biotinylated human plasma kallikrein using a homogeneous plate-based binding assay; assay read-out measured on a BMG Labtech Pherastar FS plate reader. The quantitative binding data from triplicate assay samples was averaged (mean) and expressed as signal:background (where background was a sample assayed with no target material). The signal:background was expressed as a % of the parallel parent sample. Error bars denote standard deviation of the mean. Assays shown are representative of at least 2 independent experiments. The assay data was correlated with the peptide sequences. Substitutions marked in grey were not tested (a clone was not isolated from the random library sampling). A sample of a non-binding (arbitrary) bicycle was assayed in parallel to illustrate the assay baseline.
Assay of binding of individual clones: Library transformant colonies, or selection output colonies, were picked and grown as individual cultures in 2TY broth containing selective antibiotic. The picked colonies were DNA-sequenced using a QIAgen PyroMark Q96 DNA sequencer to reveal the amino-acid substitution present in each clone, and were assayed for human plasma kallikrein binding as follows. The phage-containing supernatant was harvested from the culture and phage were cyclised with tris-bromomethylbenzene (TBMB) based on the methods of Heinis et al (Nature Chemical Biology vol. 5 pp 502-507 (2009)). The purified phage from this process were assayed for binding to biotinylated human plasma kallikrein using a homogeneous plate-based binding assay; assay read-out measured on a BMG Labtech Pherastar FS plate reader. The quantitative binding data from duplicate assay samples was averaged (mean) and expressed as signal:background. Assay data shown is representative of at least 2 independent experiments. The assay data was correlated with the peptide sequences.

The nature of series [3]: Plasma stability profiling Method #2 (95% plasma, MALDI-TOF), rat plasma. In kind it is in vitro ADME. The settings on record: qualitative, sampled up to 46 hrs. On the procedure: (§3) To obtain stability data more rapidly, peptides were also assessed in 95% plasma. Here, PBS was omitted, and a 1-5 mM peptide stock (in DMSO) was directly diluted into plasma (i.e. 2.5 μL stock into 47.5 μL plasma), giving a final concentration of 50 μM. 5 μL samples were taken at appropriate time points and frozen at −80° C. For analysis, the samples were defrosted, mixed with 25 μL of 3:3:1 acetonitrile:methanol:water, and centrifuged at 13 k for 5 min. 5 μL of the peptide-containing supernatant was aspirated and mixed with 30 mM ammonium bicarbonate in a 1:1 mixture of acetonitrile:H2O. 1 μL of this was then spotted on the MALDI plate and analysed as described above. As above, it should be noted that this is a qualitative assay serves to detect relative changes in plasma stability.

Series [4] can be described thus: Plasma stability profiling Method #2 (95% plasma, MALDI-TOF), human plasma. The series is classed as in vitro ADME. The settings on record: qualitative, sampled up to 46 hrs. On the procedure:
as §3

Series [5] can be described thus: Intravenous pharmacokinetics in rat. In kind it is in vivo. The settings on record: in vivo; text b258, rat, iv 5 mg/kg. As to the method: Peptides used for the pharmacokinetic studies in Example 4 were lyophilised from 10 mM HCl in water 3 times to afford the hydrochloride salts of the compounds. Solutions were dosed by intravenous bolus at 1 mg/mL in 50 mM Hepes pH 7.0, 5% glycerol, 1.9% DMSO for two compounds (Ac-(06-550) Aze3 HArg5 Sar3-(D-Arg2)) and (06-259-02)-Sar3-(D-Arg2)) at 5 mg/kg in Spraguely Dawely rats. Serial blood samples (˜0.2 mL) were taken into EDTA tubes at the indicated time points, and plasma was separated by centrifugation, and frozen at −20 C for analysis. Employing standard bioanalytical techniques, plasma samples were then analysed and quantified for parent remaining compound using a Waters, Xevo TQS LC-MS. PK parameters were determined using the software package PK Solutions 2.0 from Summit Research Services.
Peptides Ac-(06-550)-Sar3-(D-Arg)2Aze3 HArg5 (which contains the stabilising and affinity enhancing modifications Aze3 and HArg5, and a solubilising C-terminal extension Sar3-(D-Arg)2) (SEQ ID NO: 98) and Ac-(06-259-02)-Sar3-(D-Arg)2 were selected for pharmacokinetic assessment in rat. Peptides were injected intravenously in buffered solution at 1 mg/mL at 5 mg/kg Sprague Dawley rats, and blood was sampled and analysed for peptide concentrations at a number of time points post injection.

A short description of series [6]: Aqueous solubility (qualitative). In kind it is physicochemical. The settings on record: in words.
Where [7] appears, read: Table 4, 06-259 affinity-matured library.

T2 sequence (P14272 391-638 limits assumed): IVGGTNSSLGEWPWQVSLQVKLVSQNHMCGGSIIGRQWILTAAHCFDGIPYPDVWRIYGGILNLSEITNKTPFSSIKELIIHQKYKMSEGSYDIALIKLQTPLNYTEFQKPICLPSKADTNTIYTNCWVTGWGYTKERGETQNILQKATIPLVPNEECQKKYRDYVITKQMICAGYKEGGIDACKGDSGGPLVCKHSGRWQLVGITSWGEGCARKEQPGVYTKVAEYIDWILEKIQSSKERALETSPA
T3 sequence (P03952 391-638 limits assumed): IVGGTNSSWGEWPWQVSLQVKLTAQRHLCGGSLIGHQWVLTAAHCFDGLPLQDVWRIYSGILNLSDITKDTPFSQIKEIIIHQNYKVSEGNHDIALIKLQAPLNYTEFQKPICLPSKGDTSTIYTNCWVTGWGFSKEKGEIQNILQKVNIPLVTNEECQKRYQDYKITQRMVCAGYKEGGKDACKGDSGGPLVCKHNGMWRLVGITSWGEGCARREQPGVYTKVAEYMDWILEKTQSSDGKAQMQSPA
T3 sequence (P03952 20-390 partner limits assumed): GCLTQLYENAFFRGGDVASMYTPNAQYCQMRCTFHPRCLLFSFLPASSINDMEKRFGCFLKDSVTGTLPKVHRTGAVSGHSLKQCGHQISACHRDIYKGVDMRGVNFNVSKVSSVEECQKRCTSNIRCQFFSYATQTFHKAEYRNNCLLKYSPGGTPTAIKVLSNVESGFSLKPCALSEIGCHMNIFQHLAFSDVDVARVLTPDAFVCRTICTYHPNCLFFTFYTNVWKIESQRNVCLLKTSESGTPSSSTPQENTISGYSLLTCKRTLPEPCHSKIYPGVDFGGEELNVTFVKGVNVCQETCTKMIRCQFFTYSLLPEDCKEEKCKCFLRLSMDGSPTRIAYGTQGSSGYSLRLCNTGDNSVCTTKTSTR
T1 sequence (P03952 391-638 limits assumed): as the sequence (P03952 391-638 limits assumed) above
T1 sequence (P03952 20-390 partner limits assumed): as the sequence (P03952 20-390 partner limits assumed) above
Sequence of rabbit kallikrein (G1T127 20-629): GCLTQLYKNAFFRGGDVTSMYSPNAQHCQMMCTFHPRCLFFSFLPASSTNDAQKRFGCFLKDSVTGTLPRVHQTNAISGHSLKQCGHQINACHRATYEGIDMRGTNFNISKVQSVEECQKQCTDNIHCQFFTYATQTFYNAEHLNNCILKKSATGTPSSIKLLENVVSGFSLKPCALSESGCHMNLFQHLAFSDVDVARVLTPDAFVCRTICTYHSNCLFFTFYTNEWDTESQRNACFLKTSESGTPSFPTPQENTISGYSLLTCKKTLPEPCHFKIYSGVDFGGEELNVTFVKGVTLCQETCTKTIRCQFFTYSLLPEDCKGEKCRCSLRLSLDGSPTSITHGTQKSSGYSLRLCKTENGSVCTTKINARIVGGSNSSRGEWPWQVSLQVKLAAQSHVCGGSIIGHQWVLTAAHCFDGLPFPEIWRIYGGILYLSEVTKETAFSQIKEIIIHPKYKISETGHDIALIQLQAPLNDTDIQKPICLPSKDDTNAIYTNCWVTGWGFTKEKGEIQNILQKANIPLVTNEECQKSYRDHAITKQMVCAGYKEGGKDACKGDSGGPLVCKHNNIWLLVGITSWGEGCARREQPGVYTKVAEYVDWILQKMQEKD

Turning to `COc1ccc2c(c1)c(CC(=O)O)c(C)n2C(=O)c1ccc(Cl)cc1` [indomethacin, reference compound], in series [1], the “effect on paw swelling induced by carrageenan” value is recorded as “highly significant reduction in paw swelling”.
Consider `CC[C@H](C)[C@@H]1NC(=O)[C@H]([C@@H](C)O)NC(=O)[C@H](C(C)C)NC(=O)[C@H](CC(C)C)NC(=O)[C@H](CC(=O)O)NC(=O)[C@@H]2CSCc3cc(cc(c3)CSC[C@@H](C(=O)N[C@@H](C)C(N)=O)NC(=O)[C@H](CO)NC1=O)CSC[C@H](NC(=O)[C@H](C)N)C(=O)N[C@@H](CCCCN)C(=O)N[C@@H](CC(N)=O)C(=O)N[C@@H](Cc1ccc(O)cc1)C(=O)N[C@@H](Cc1c[nH]c3ccccc13)C(=O)N[C@@H](CC(N)=O)C(=O)N1CCC[C@H]1C(=O)N2` [06-254] (H-ACKNYWNPCDLVTISCA-NH2; linker 2-9-16 via TBMB; N-terminus assumed), for which the Ki came out at 5.3 nM at human plasma kallikrein (Table 1, synthetic peptides); 42.5 nM on rat plasma kallikrein (Table 1, synthetic peptides); 280 nM on rabbit kallikrein (Table 1, synthetic peptides); 280 nM at rabbit kallikrein (Table 5). The “S:B (Signal:Background)” value in series [2] (Table 3, 06-254 affinity-matured library) is reported as 23.48.
For `CC(C)C[C@@H]1NC(=O)[C@H](CC(=O)O)NC(=O)[C@H](CCC(N)=O)NC(=O)[C@H](Cc2c[nH]cn2)NC(=O)[C@H](CC(C)C)NC(=O)[C@@H]2CSCc3cc(cc(c3)CSC[C@H](N)C(=O)N[C@@H](CO)C(=O)N[C@@H](Cc3c[nH]c4ccccc34)C(=O)N3CCC[C@H]3C(=O)N[C@@H](C)C(=O)N[C@@H](CCCNC(=N)N)C(=O)N2)CSC[C@@H](C(N)=O)NC1=O` [06-34-18, reference compound] (H-CSWPARCLHQDLC-NH2; linker 1-7-13 via TBMB; N-terminus and C-terminus assumed), the “comparative stability in rat plasma” value in series [3] is recorded as “largely disappeared”. For the same compound, in series [4], the “comparative stability in human plasma” value is “largely disappeared”.
As for `CC[C@H](C)[C@@H]1NC(=O)[C@@H]2CCCN2C(=O)[C@@H]2CCCN2C(=O)[C@H](CC(=O)O)NC(=O)[C@H](C)NC(=O)[C@H](CO)NC(=O)[C@@H]2CSCc3cc(cc(c3)CSC[C@@H](C(=O)N[C@@H](C)C(N)=O)NC1=O)CSC[C@H](NC(=O)[C@H](C)N)C(=O)N[C@@H](CC(N)=O)C(=O)N[C@@H](Cc1c[nH]cn1)C(=O)N[C@@H](Cc1c[nH]c3ccccc13)C(=O)N[C@@H](CC(N)=O)C(=O)N1CCC[C@H]1C(=O)N[C@@H](Cc1c[nH]c3ccccc13)C(=O)N2` [06-259-03] (H-ACNHWNPWCSADPPICA-NH2; linker 2-9-16 via TBMB; N-terminus and C-terminus assumed), the Ki on human plasma kallikrein (Table 5) is 1.4 nM; on rat plasma kallikrein (Table 5) it was 8.2 nM. Moreover, the “S:B (Signal:Background)” value in [2] (setting [7]) is on record as 49.82.
For the compound `CC[C@H](C)[C@@H]1NC(=O)[C@H](CC(=O)O)NC(=O)[C@@H]2CCCN2C(=O)[C@H](Cc2ccc(O)cc2)NC(=O)[C@H](Cc2ccc(O)cc2)NC(=O)[C@H](C(C)C)NC(=O)[C@@H]2CSCc3cc(cc(c3)CSC[C@H](N)C(=O)N[C@@H](CO)C(=O)N[C@@H](Cc3ccccc3)C(=O)N3CCC[C@H]3C(=O)N[C@@H](Cc3ccc(O)cc3)C(=O)N[C@@H](CCCNC(=N)N)C(=O)N2)CSC[C@@H](C(N)=O)NC1=O` [06-550] (H-CSFPYRCVYYPDIC-NH2; linker 1-7-14 via TBMB; N-terminus assumed), in series [5], the clearance is 17 mL/min/kg. For the same compound, in [6], the aqueous solubility result was “significantly reduced aqueous solubility”.
`CC(C)[C@@H]1NC(=O)[C@H](Cc2c[nH]c3ccccc23)NC(=O)CNC(=O)[C@@H]2CSCc3cc(cc(c3)CSC[C@@H](C(=O)N[C@@H](C)C(N)=O)NC(=O)[C@H](Cc3ccccc3)NC(=O)CNC(=O)CNC1=O)CSC[C@H](NC(=O)[C@H](C)N)C(=O)N[C@@H](CC(N)=O)C(=O)N[C@@H]([C@@H](C)O)C(=O)N[C@@H](Cc1c[nH]c3ccccc13)C(=O)N[C@@H](CC(N)=O)C(=O)N1CCC[C@H]1C(=O)N[C@@H](Cc1c[nH]c3ccccc13)C(=O)N2` [06-259] (H-ACNTWNPWCGWVGGFCA-NH2; linker 2-9-16 via TBMB; N-terminus and C-terminus assumed): the Ki at human plasma kallikrein (Table 1, synthetic peptides) was determined as 20.1 nM; at rat plasma kallikrein (Table 1, synthetic peptides) it was 6.2 nM. For the same compound, in [2] (setting [7]), the “S:B (Signal:Background)” value is reported as 1.17.
With `CC[C@H](C)[C@@H]1NC(=O)[C@H](CC(=O)O)NC(=O)[C@@H]2CCCN2C(=O)[C@H](Cc2ccc(O)cc2)NC(=O)[C@H](Cc2ccc(O)cc2)NC(=O)[C@H](C(C)C)NC(=O)[C@@H]2CSCc3cc(cc(c3)CSC[C@H](N)C(=O)N[C@@H](CO)C(=O)N[C@@H](Cc3ccccc3)C(=O)N3CC[C@H]3C(=O)N[C@@H](Cc3ccc(O)cc3)C(=O)N[C@@H](CCCCNC(=N)N)C(=O)N2)CSC[C@@H](C(N)=O)NC1=O` [06-550 Aze3 HArg5, -Ci-S-F-[Aze]-Y-[hR]-Cii-V-Y-Y-P-D-I-Ciii-] (H-CSF[Aze]Y[hArg]CVYYPDIC-NH2; linker 1-7-14 via TBMB; N-terminus and C-terminus assumed), the aqueous solubility entry in series [6] is reported as “significantly reduced aqueous solubility”.

Usually Ki stands for a dissociation constant, usually derived from enzyme kinetics or from competition with a known ligand. By clearance is commonly meant the rate of elimination divided by the concentration. A low value points to inefficient removal.
